Structures are written as SMILES.

For one assay, the target named is T1, FAAH (Mus musculus, UniProt O08914).
T1 construct: A fragment of liver, left lung lobe and brain without cerebellum were removed; from tissue; host or cells: male NMRI mice; brain (without cerebellum) and liver homogenates
T1 sequence (O08914 1-579): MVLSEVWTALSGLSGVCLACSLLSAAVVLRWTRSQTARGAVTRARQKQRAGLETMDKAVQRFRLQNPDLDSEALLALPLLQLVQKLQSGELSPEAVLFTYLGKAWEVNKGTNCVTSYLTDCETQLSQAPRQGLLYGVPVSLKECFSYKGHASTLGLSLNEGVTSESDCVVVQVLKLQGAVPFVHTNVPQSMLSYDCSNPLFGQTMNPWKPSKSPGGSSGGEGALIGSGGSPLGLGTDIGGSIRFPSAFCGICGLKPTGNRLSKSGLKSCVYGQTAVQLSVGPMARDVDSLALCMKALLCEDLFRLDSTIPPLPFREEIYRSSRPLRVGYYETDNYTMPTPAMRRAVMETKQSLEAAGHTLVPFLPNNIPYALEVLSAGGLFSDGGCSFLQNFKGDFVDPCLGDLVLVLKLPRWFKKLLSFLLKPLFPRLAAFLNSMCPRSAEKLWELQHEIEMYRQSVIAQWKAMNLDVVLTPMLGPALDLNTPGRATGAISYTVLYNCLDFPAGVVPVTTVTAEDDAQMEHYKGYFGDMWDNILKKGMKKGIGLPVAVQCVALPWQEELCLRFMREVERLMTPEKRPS
As to the kind of experiment: In vivo FAAH inhibition after oral dosing, remaining activity in liver homogenate (LVh, peripheral tissue). The arrangement: species or system NMRI mice. The settings on record: 8 h. The essentials:
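Remaining FAAH activity is given as % of vehicle-treated controls after blank subtraction, measured by radiolabelled AEA hydrolysis (2 μM AEA, 5 nM 3H-AEA, 37 °C) in brain (10 min) or liver (7 min) homogenates. These came from fasted male NMRI mice dosed orally at 30 or 3 mg/kg.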

Assay [1] concerns the target T2, monoacylglycerol lipase (MAGL) (Rattus norvegicus, UniProt Q8R431).
T2 construct: cerebella cytosol (CRBcyt) fractions, previously obtained from adult WISTAR rats; from tissue; host or cells: adult Wistar rat cerebella, cytosol fraction
T2 sequence (Q8R431 1-303): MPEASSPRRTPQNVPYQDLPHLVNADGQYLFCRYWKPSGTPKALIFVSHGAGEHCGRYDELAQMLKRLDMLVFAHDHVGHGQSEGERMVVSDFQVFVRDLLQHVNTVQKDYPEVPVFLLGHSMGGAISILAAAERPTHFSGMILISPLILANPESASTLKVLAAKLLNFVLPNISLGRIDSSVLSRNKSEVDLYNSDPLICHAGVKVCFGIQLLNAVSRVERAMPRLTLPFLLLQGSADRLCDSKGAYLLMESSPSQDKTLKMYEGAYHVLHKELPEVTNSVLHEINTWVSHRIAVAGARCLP
As to the kind of experiment: MAGL activity in rat cerebella cytosol (CRBcyt), hydrolysis of [3H] 2-OG. The class given is biochemical, WISTAR rats. The note with it: 12.5 uM compound, remaining MAGL activity. Here is the method:
(§1) FAAH inhibition was determined as described above. Inhibition of monoacylglycerol lipase (MAGL) and carboxylesterase (CE) was performed according to the protocols described below. The controls for both in vitro and in vivo were the reaction mix minus the test compounds. Therefore, a low value in Table 2 below for the test compounds indicates a strong inhibitor.
MAGL activity measurement was based on rate of hydrolysis of [^3H] 2-OG (glycerol labeled) as substrate. Briefly, cerebella cytosol (CRBcyt) fractions, previously obtained from adult WISTAR rats, were diluted to appropriate assay protein concentrations in Tris-HCl buffer (10 mM, pH 7.2) containing 1 mM EDTA, and were added to assay tubes containing test compound. Blanks contained assay buffer instead of cytosol samples were used as control. […] The final assay contained 0.125% w v^−1 fatty acid-free BSA. After the incubation phase, reactions were stopped by adding 400 μL chloroform:methanol (1/1 v v^−1), vortex mixing the tubes two times and placing them on ice. Phases were separated by centrifugation and 200 μL aliquots of the methanol/buffer phase were taken and tritium content assayed by liquid scintillation spectroscopy with quench correction.

The next assay concerns carboxylesterase (CE). Briefly: Carboxylesterase (CE) activity in rat liver microsomes (LVms), p-nitrophenyl acetate. The class given is biochemical. The settings on record: 10 uM compound, read 10 min after substrate, remaining CE activity. Here is the method: as §1
CE activity measurement is based on the formation of p-nitrophenol from p-nitrophenyl acetate. Briefly, in 96-well plates 8 μg/ml of rat or mouse liver microsomes (LVms) were incubated with 10 μM FAAH inhibitors for 15 min and then the substrate, p-nitrophenyl acetate, was added to a final concentration of 1 mM. The plate was read at 405 nm 10 min after substrate addition for the appearance of p-nitrophenol using a spectrophotometer. The carboxylesterase activity in microsome extracts without inhibitor added were set at 100% as control and the remaining CE activities after incubation with inhibitors were calculated relative to the control.

Turning to `COc1cccc(-c2cn(C(=O)N3CCCc4ccccc43)cn2)c1` [Compound 39, (3,4-dihydroquinolin-1(2H)-yl)(4-(3-methoxyphenyl)-1H-imidazol-1-yl)methanone], at FAAH (in vivo, mouse liver, 3 mg/kg oral, remaining enzymatic activity), the “FAAH LVh 3 mg · kg · 8 h” value was 101.1 % of control. Also, the “In Vivo LVh 3 mg/kg 8 h, remaining FAAH activity” value on FAAH (liver homogenate, 3 mg/kg) is listed as 101.1 % of control. Moreover, the “MAGL Rat CRBcyto 12.5 uM 8 min” value in assay [1] was 87 % of control. For the same compound, the “CE Rat LVms 10 uM 10 min” value with carboxylesterase (CE) is on record as 94.7 % of control.

The values are drawn from patent US9353082B2, “Pharmaceutical compounds” (BIAL—PORTELA & CA, S.A., priority 2008, dated 2016).
